Consider three molecules from article PMC3663881 (Journal of biomolecular screening, 2013).

The target in one series is RhaS (Escherichia coli, UniProt P09377, L201R). Briefly: EMSA, inhibition of DNA binding by purified protein. Background: A gel shift assay detects complexes by their altered migration in electrophoresis.
The target of a further series is RhaR (Escherichia coli, UniProt P09378). Described as above.
For another series, the target named is LacI (UniProt P03023 1-360). Briefly: EMSA.
For another series, the target named is T1, GB1b-RhaR (UniProt P09378 1-282).
T1 sequence: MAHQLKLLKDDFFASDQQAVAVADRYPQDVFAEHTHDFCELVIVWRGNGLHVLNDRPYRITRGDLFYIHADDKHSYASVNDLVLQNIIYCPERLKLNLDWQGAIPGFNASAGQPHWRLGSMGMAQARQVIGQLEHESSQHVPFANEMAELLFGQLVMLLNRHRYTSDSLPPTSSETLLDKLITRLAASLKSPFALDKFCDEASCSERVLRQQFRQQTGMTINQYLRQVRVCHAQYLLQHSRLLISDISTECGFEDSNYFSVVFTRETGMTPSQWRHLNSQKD
Description: EMSA.

Chain of LacI (P03023 whole entry): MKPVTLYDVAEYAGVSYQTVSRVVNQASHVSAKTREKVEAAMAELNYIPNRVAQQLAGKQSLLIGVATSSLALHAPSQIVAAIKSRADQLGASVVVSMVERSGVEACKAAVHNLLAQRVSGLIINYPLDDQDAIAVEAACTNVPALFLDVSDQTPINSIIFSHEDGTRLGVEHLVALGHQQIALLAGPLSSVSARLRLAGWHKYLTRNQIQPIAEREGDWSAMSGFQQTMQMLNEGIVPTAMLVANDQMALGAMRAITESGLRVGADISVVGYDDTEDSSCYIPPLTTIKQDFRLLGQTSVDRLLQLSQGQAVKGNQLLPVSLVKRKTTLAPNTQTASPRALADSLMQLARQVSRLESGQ
Chain of RhaS (P09377 whole entry L201R): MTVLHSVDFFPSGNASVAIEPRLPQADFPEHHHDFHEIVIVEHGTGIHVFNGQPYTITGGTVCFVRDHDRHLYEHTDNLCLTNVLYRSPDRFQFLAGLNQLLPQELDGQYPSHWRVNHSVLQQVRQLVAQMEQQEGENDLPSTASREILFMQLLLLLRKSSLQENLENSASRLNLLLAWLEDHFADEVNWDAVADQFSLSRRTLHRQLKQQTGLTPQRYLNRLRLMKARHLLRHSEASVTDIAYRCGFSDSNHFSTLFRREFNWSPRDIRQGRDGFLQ

As for `CCCCN1C=C(c2ccc3ccccc3n2)C(C[N+](=O)[O-])c2ccccc21` (stereo not shown) [OSSL_051168, 1-butyl-4-nitromethyl-3-quinolin-2-yl-4H-quinoline], the IC50 on RhaS was roughly 70 µM; on RhaR, roughly 140 µM.

B1: lac O1 probe (IR O1-For/O1-Rev) (dsDNA)
DNA 1: TGTTGTGTGGAATTGTGAGCGGATAACAATTTCACACAGG
DNA 2: CCTGTGTGAAATTGTTATCCGCTCACAATTCCACACAACA
On to B1, for which the binding result with LacI was “binds”.

B2: RhaR site probe (oligos 3056/3287) (dsDNA)
DNA 1: CGCTGTATCTTGAAAAATCGACGTTTTTTACGTGGTTTTCCGTCGAAAATTTAAGGTAAGAAC
DNA 2: GTTCTTACCTTAAATTTTCGACGGAAAACCACGTAAAAAACGTCGATTTTTCAAGATACAGCG
Consider B2, for which the binding result with GB1b-RhaR was “binds”.

One may read the IC50 as the concentration at which inhibition is half-maximal. High values mean a need for much substance, low ones inhibition by little substance.
